Measured values reported in patent US11311570B2, “Method of inducing satiety” (PERORA GMBH, priority 2014, dated 2022).

Key:
[1] = published rat feeding study, independent from intake; cited from earlier work
[2] = Tryptophan release / dissolution in simulated gastric and intestinal fluid; format: physicochemical; conditions: 30 mg powder in 22 mL FaSSGF, 37° C.
Protocol: A sample of 200 mg of tryptophan-containing granules was suspended in 22 mL fasted-state simulated gastric fluid (FaSSGF) at 37° C. and agitated (shaker ST5 from CAT, Germany). FaSSGF was prepared by dissolving 1 g of NaCl (Sigma-Aldrich) in 450 mL of water, adding 30 mg of SIF powder (biorelvant.com), adjusting the pH to 2.0 with 0.1 N HCl (Sigma-Aldrich) and adding water to a final volume of 500 mL.
A sample of 200 mg of tryptophan-containing granules was suspended in 22 mL fasted-state simulated intestinal fluid (FaSSIF) at 37° C. and agitated (shaker ST5 from CAT, Germany).
30 mg of tryptophan powder were suspended in 22 mL FaSSGF at 37° C. and agitated (shaker ST5 from CAT, Germany). Aliquots were removed at time intervals of 5 min, and tryptophan concentration was quantified using absorption measurement at a wavelength of 280 nm in a NanoDrop® 2000 device (Thermo Scientific, USA).

CCCCCCCCCCCCCCCCCC(=O)OCC(COC(=O)CCCCCCCCCCCCCCCCC)OC(=O)CCCCCCCCCCCCCCCCC [tristearin]
true digestibility of stearic acid from tristearin [1]: 0.15 g/g

N[C@@H](Cc1c[nH]c2ccccc12)C(=O)O [tryptophan powder, L-Tryptophan]
time after which quantitatively dissolved [2]: 10 min
